# Measured values as given in EPA's ToxRefDB 2.
# Key:
# rabbit = settings: Prenatal developmental toxicity study, dutch, Oral, Gavage/Intubation, dose end: 18 GD
# rat [1] = settings: Combined chronic toxicity/carcinogenicity, wistar, Oral, Feed, dose end: 104 week, group: systemic
# rat [2] = settings: Combined chronic toxicity/carcinogenicity, wistar, Oral, Feed, dose end: 2 year, group: systemic
# dog [3] = settings: Chronic toxicity; beagle; Oral; Capsule; dose end: 52 week; group: systemic; systemic / clinical chemistry / alkaline phosphatase (alp/alk) / alkaline phosphatase (alp/alk) + systemic / organ weight / liver / nos + …
# mouse [4] = settings: Carcinogenicity; cd1; Oral; Feed; dose end: 24 month; group: systemic; systemic / in life observation / clinical signs / anogenital staining + systemic / in life observation / clinical signs / distended abdomens…
# rat [5] = settings: Prenatal developmental toxicity study, wistar, Oral, Gavage/Intubation, dose end: 16 GD
# mouse [6] = settings: Carcinogenicity, cd1, Oral, Feed, dose end: 100 week, group: systemic
# dog [7] = settings: Subchronic oral toxicity in nonrodent, beagle, Capsule, dose end: 6 month, group: systemic, systemic / organ weight / liver / relative to body weight
# rat [8] = settings: Multigenerational reproductive toxicity study, wistar, Oral, Feed, dose end: 3 generation
# mouse [9] = settings: Carcinogenicity, other, Oral, Feed, dose end: 98 week, group: systemic
# dog [10] = settings: Chronic toxicity, beagle, Oral, Feed, dose end: 24 month, group: systemic
# rat [11] = settings: Combined chronic toxicity/carcinogenicity, sprague dawley, Oral, Feed, dose end: 24 month, group: systemic
# mouse [12] = settings: Carcinogenicity, cd1, Oral, Feed, dose end: 104 week, group: systemic
# rat [13] = settings: Subchronic oral toxicity in rodents, sprague dawley, Gavage/Intubation, dose end: 13 week, group: systemic
# rat [14] = settings: Multigenerational reproductive toxicity study, Oral, Feed, dose end: 3 generation, group: offspring
# [15] = group: developmental, developmental / developmental malformation / bone / incomplete ossification + systemic / in life observation / body weight / fetal weight
# [16] = group: maternal, systemic / in life observation / body weight / body weight gain
# [17] = group: maternal, systemic / in life observation / body weight / body weight gain + systemic / in life observation / body weight / body weight
# [18] = systemic / in life observation / clinical signs / tremors + systemic / hematology / platelet / platelet + systemic / organ weight / kidney…
# [19] = systemic / organ weight / kidney / nos + systemic / organ weight / liver / nos + systemic / clinical chemistry / aminopyrine-n-demethylase…
# [20] = group: developmental, developmental / developmental malformation / bone / short supernumerary + systemic / in life observation / body weight / fetal weight
# [21] = group: maternal, systemic / in life observation / body weight / body weight gain + systemic / in life observation / clinical signs / headflicking + systemic…
# [22] = systemic / organ weight / liver / absolute
# [23] = systemic / pathology gross / liver / mass + systemic / pathology gross / lung / mass + systemic / pathology microscopic / liver / …
# [24] = group: offspring, systemic / pathology microscopic / liver / hypertrophy
# [25] = group: parental, systemic / in life observation / clinical signs / tremors
# [26] = systemic / hematology / platelet / platelet + systemic / organ weight / liver / relative to body weight + systemic / hematology / leukocyte…
# [27] = systemic / organ weight / kidney / absolute + systemic / organ weight / kidney / relative to body weight
# [28] = systemic / organ weight / thyroid gland / relative to body weight
# [29] = systemic / organ weight / thyroid gland / relative to body weight + systemic / organ weight / liver / relative to body weight
# [30] = systemic / pathology microscopic / liver / eosinophilic focus
# [31] = systemic / pathology microscopic / liver / adenoma + systemic / pathology microscopic / liver / adenoma/carcinoma combined + systemic / …
# [32] = systemic / organ weight / heart / nos + systemic / organ weight / heart / relative to body weight
# [33] = systemic / organ weight / heart / nos + systemic / organ weight / heart / relative to body weight + systemic / hematology / erythrocyte (rbc…
# [34] = systemic / in life observation / body weight / offspring (pup) weight + systemic / in life observation / food consumption / food consumption
smiles,measurement,setting,value
CC1(C)C(C=C(Cl)Cl)C1C(=O)OCc1cccc(Oc2ccccc2)c1 (configuration not stated) [Permethrin],LOAEL,"rabbit; group: developmental, developmental / developmental malformation / bone / incomplete ossification",1200 mg/kg/day
same,LEL,rabbit; [15],1200 mg/kg/day
same,NEL,rabbit; [15],600 mg/kg/day
same,NOAEL,rabbit; [15],600 mg/kg/day
same,LOAEL,rabbit; [16],600 mg/kg/day
same,NOAEL,rabbit; [16],< 600 mg/kg/day
same,LEL,rabbit; [17],600 mg/kg/day
same,NEL,rabbit; [17],< 600 mg/kg/day
same,LEL,rat [1]; systemic / hematology / platelet / platelet + systemic / pathology microscopic / liver / hypertrophy + systemic / pathology microscopic / …,50 mg/kg/day
same,LOAEL,rat [1]; systemic / in life observation / clinical signs / tremors,250 mg/kg/day
same,NEL,rat [1]; [18],10 mg/kg/day
same,NOAEL,rat [1]; [18],50 mg/kg/day
same,LOAEL,rat [2]; systemic / in life observation / clinical signs / hypersensitivity + systemic / in life observation / clinical signs / tremors,91.5 mg/kg/day
same,NOAEL,rat [2]; systemic / in life observation / clinical signs / hypersensitivity + systemic / in life observation / clinical signs / tremors + systemic / …,36.9 mg/kg/day
same,LEL,rat [2]; [19],19.4 mg/kg/day
same,NEL,rat [2]; [19],< 19.4 mg/kg/day
same,LEL,dog [3],100 mg/kg/day
same,LOAEL,dog [3],100 mg/kg/day
same,NEL,dog [3],5 mg/kg/day
same,NOAEL,dog [3],5 mg/kg/day
same,LEL,mouse [4],3 mg/kg/day
same,LOAEL,mouse [4],> 714 mg/kg/day
same,NEL,mouse [4],< 3 mg/kg/day
same,NOAEL,mouse [4],≥ 714 mg/kg/day
same,LEL,rat [5]; [20],150 mg/kg/day
same,LOAEL,rat [5]; [20],150 mg/kg/day
same,NEL,rat [5]; [20],50 mg/kg/day
same,NOAEL,rat [5]; [20],50 mg/kg/day
same,LEL,rat [5]; [21],150 mg/kg/day
same,LOAEL,rat [5]; [21],150 mg/kg/day
same,NEL,rat [5]; [21],50 mg/kg/day
same,NOAEL,rat [5]; [21],50 mg/kg/day
same,LOAEL,mouse [6]; [22],807 mg/kg/day
same,NOAEL,mouse [6]; [22],< 807 mg/kg/day
same,LEL,mouse [6]; [23],780 mg/kg/day
same,NEL,mouse [6]; [23],< 780 mg/kg/day
same,LEL,dog [7],50 mg/kg/day
same,LOAEL,dog [7],> 250 mg/kg/day
same,NEL,dog [7],10 mg/kg/day
same,NOAEL,dog [7],≥ 250 mg/kg/day
same,LEL,rat [8]; [24],25 mg/kg/day
same,LOAEL,rat [8]; [24],> 125 mg/kg/day
same,NEL,rat [8]; [24],< 25 mg/kg/day
same,NOAEL,rat [8]; [24],≥ 125 mg/kg/day
same,LEL,rat [8]; [25],125 mg/kg/day
same,LOAEL,rat [8]; [25],125 mg/kg/day
same,NEL,rat [8]; [25],50 mg/kg/day
same,NOAEL,rat [8]; [25],50 mg/kg/day
same,LOAEL,mouse [9]; [26],> 287 mg/kg/day
same,NOAEL,mouse [9]; [26],≥ 287 mg/kg/day
same,LEL,mouse [9]; [27],26.9 mg/kg/day
same,NEL,mouse [9]; [27],< 26.9 mg/kg/day
Cc1[nH]c(=O)n(C(C)(C)C)c(=O)c1Cl [Terbacil],LEL,dog [10]; [28],6.25 mg/kg/day
same,LOAEL,dog [10]; [28],6.25 mg/kg/day
same,NEL,dog [10]; [29],1.25 mg/kg/day
same,NOAEL,dog [10]; [29],1.25 mg/kg/day
same,LOAEL,rat [11]; systemic / organ weight / liver / absolute + systemic / organ weight / liver / relative to body weight + systemic / in life observation / …,83 mg/kg/day
same,NOAEL,rat [11]; systemic / organ weight / liver / absolute + systemic / organ weight / liver / relative to body weight + systemic / pathology microscopic / …,1.4 mg/kg/day
same,LEL,rat [11]; [30],0.9 mg/kg/day
same,NEL,rat [11]; [30],< 0.9 mg/kg/day
same,LEL,mouse [12]; [31],7.2 mg/kg/day
same,NEL,mouse [12]; [31],< 7.2 mg/kg/day
same,LOAEL,mouse [12]; systemic / pathology microscopic / liver / hyperplastic nodule (pre-neoplastic),1070 mg/kg/day
same,NOAEL,mouse [12]; systemic / pathology microscopic / liver / hyperplastic nodule (pre-neoplastic) + systemic / pathology microscopic / liver / adenoma + …,179 mg/kg/day
O=C([O-])CF.[Na+] [Sodium fluoroacetate],NEL,rat [13]; [32],0.05 mg/kg/day
same,NOAEL,rat [13]; [32],0.05 mg/kg/day
same,LEL,rat [13]; [33],0.2 mg/kg/day
same,LOAEL,rat [13]; [33],0.2 mg/kg/day
"CCCCCCCCCc1ccc(OP(Oc2ccc(CCCCCCCCC)cc2)Oc2ccc(CCCCCCCCC)cc2)cc1 [Phenol, nonyl-, phosphite (3:1)]",LOAEL,rat [14]; [34],> 500 mg/kg/day
same,NEL,rat [14]; [34],50 mg/kg/day
same,NOAEL,rat [14]; [34],≥ 500 mg/kg/day
same,LEL,rat [14]; systemic / in life observation / food consumption / food consumption,167 mg/kg/day
